# Test results as given in patent US20050026949A1, “Methods of therapeutic treatment using amounts of retinoids without regard to body weight” (Allergan, Inc., priority 2003, published 2005).
# Key:
# Type in all cases: in vivo, human
# [1] = tested on: patients with severe nodulocystic acne; assay: Multicenter double-blind placebo-controlled study of oral tazarotene (Example 10); conditions: for patients withdrawing due to lack of efficacy: placebo 17%; for reduction in mean facial papule or pastule count / reduction in mean facial non-inflammatory lesion count / reduction in mean total facial nodulocystic lesion count: end of treatment; for reduction in mean facial papule or pastule count: placebo 31%; for reduction in mean facial non-inflammatory lesion count: placebo 45%; for reduction in mean total facial nodulocystic lesion count: placebo 55%
# From the text: A multicenter, double-blind, randomized, placebo-controlled parallel-group study is undertaken to determine the efficacy of orally administered tazarotene in treating severe nodulocystic acne.
# In addition, washout periods for other medications for this study are: 1 week for vitamin A supplements >5000 IU; 2 weeks for topical anti-acne medications (e.g., retinoids, azelaic acid, benzoyl peroxide); 2 weeks for topical or systemic antibiotic therapy that may alter the course of acne; and 6 months for systemic retinoids.
# Patients are randomized to receive placebo or oral tazarotene (0.75, 1.5, 3, or 6 mg), in a 1:1:1:1:1 ratio once daily for 24 weeks. After this, the patients are followed without treatment for an additional 12 weeks. Patients discontinuing from the treatment period due to adverse effects or lack of efficacy are eligible for entry into the post-treatment phase.
# In the study, overall acne severity is rated as: none (no inflammatory acne lesions); mild (few to several papules or pustules, no nodulocystic lesions); moderate (several to many papules or pustules, few to several nodulocystic lesions); and severe (numerous or extensive papules or pustules, many, for example, at least about 5 or at least about 10, nodulocystic lesions).
# Treatment success is defined as at least moderate (about 50%) improvement on the following 7-point global response scale: • 0=completely cleared • 1=almost cleared (about 90% improvement) • 2=marked response (about 75% improvement) • 3=moderate response (about 50% improvement) • 4=slight response (about 25% improvement) • 5=condition unchanged • 6=condition worsened
# In this study, facial nodulocystic lesion count includes lesions greater than 5 mm in size. Facial papular/pustular lesion count includes lesions less than or equal to 5 mm in size. Facial non-inflammatory lesion count includes open and closed comedones.
# Sebum output is assessed every 4 weeks at selected centers using the Sebutape® patches, sold by Cuderm Corporation. Urinalysis, chemistry, and hematology values are monitored. Bone formation and resorption assessments (serum bone alkaline phosphatase and serum amino terminal telopeptides, respectively) at selected centers are monitored.
# Bone mineral density of spine and proximal femur at selected centers is monitored. Ligament calcification or osteophyte formation (lateral X-ray of the cervical and thoracic spine, and ankle calcaneous) is monitored. Epiphyseal growth plate closure (internal oblique X-ray of the ankle in patients less than or equal to 21 years old) is monitored.
# [2] = PK and PD interaction studies of oral tazarotene with oral contraceptives (Example 8)
# Protocol: It is the objective of this study to determine if there are pharmacokinetic (PK) and pharmacodynamic (PD) interactions between tazarotene and commonly prescribed oral contraceptives (OCs) when coadministered together.
# Three separate clinical studies are conducted to evaluate the PK and PD interactions of oral tazarotene and OCs in healthy volunteers. Two studies evaluate daily doses of norethindrone (NE)/ethinyl estradiol (EE) with daily doses of tazarotene 1.1 mg (N=27) and 6 mg (N=29). The third study assesses the daily doses of norgestimate (NGM)/EE with daily doses of tazarotene 6 mg (N=26). OCs are administered for three consecutive menstrual cycles. Daily doses of tazarotene are started during the 2nd cycle and continued through the end of the studies. PK parameters for EE, NE, and NGM (AUC0-24 and Cmax) are determined before tazarotene dosing and after tazarotene dosing on day 6 of the 2nd and 3rd cycles. Serum concentrations of luteinizing hormone (LH) and follicle-stimulating hormone (FSH)-markers of contraceptive efficacy are also evaluated before tazarotene dosing and after tazarotene dosing on days 2, 4, and 6 of the 2nd and 3rd cycles. Serum progesterone levels are assessed on days 18 and 20 of the 2nd and 3rd cycles.
# The plasma of each subject is tested for Cmax and AUC of tazarotenic acid, the primary active retinoid agent in systemic circulation as the result of the oral administration of tazarotene.
# [3] = tested on: patients treated for acne; assay: Studies of orally administered tazarotene for acne: adverse events (Table 2); conditions: combined data from Studies 1 and 2 (N = 223)
# Protocol: Studies are conducted on orally administered tazarotene for the treatment of acne. Adverse events (side effects) are monitored.
# [4] = tested on: patients with moderate to very severe plaque psoriasis; assay: Open-label extension study of oral tazarotene (Example 4); conditions: 4.5 mg once daily, 12-week extension treatment period, both groups
# [5] = 0.75 to 6 mg once daily for 24 weeks
smiles,measurement,setting,value
CCOC(=O)c1ccc(C#Cc2ccc3c(c2)C(C)(C)CCS3)nc1 [tazarotene],patients withdrawing due to adverse events in the treatment period,[1]; 0.75 mg group (2/35),6%
same,patients withdrawing due to lack of efficacy,[1]; 0.75 mg group (7/35),20%
same,patients with either no acne or mild acne,"[1]; 0.75 mg group, end of the treatment phase, placebo 19%",34%
same,reduction in mean facial papule or pastule count,[1]; 0.75 mg group,37%
same,reduction in mean facial non-inflammatory lesion count,[1]; 0.75 mg group,46%
same,reduction in mean total facial nodulocystic lesion count,[1]; 0.75 mg group,66%
same,mean total facial nodulocystic lesion count at the end of the treatment period,"[1]; 0.75 mg group, from 12.2 at baseline",4.2
same,mean facial papule or pastule count at the end of the treatment period,"[1]; 0.75 mg group, from 32.3 at baseline",20.3
same,mean facial non-inflammatory lesion count at the end of the treatment period,"[1]; 0.75 mg group, from 56.3 at baseline",30.3
same,patients withdrawing due to adverse events in the treatment period,[1]; 1.5 mg group (0/37),0%
same,patients withdrawing due to lack of efficacy,[1]; 1.5 mg group (2/37),5%
same,reduction in mean facial papule or pastule count,[1]; 1.5 mg group,54%
same,reduction in mean facial non-inflammatory lesion count,[1]; 1.5 mg group,70%
same,reduction in mean total facial nodulocystic lesion count,[1]; 1.5 mg group,73%
same,mean total facial nodulocystic lesion count at the end of the treatment period,"[1]; 1.5 mg group, from 11.8 at baseline",3.2
same,mean facial papule or pastule count at the end of the treatment period,"[1]; 1.5 mg group, from 29.1 at baseline",13.3
same,mean facial non-inflammatory lesion count at the end of the treatment period,"[1]; 1.5 mg group, from 59.2 at baseline",17.8
same,incidence of treatment success (≧50% global improvement) vs placebo,"[1]; 3 mg and 6 mg, week 24 and throughout the post-treatment phase (p≦0.05)",significantly higher incidence of treatment success
same,patients withdrawing due to lack of efficacy,[1]; 3 mg group (0/37),0%
same,patients withdrawing due to adverse events in the treatment period,[1]; 3 mg group (2/37),5%
same,patients with either no acne or mild acne,"[1]; 3 mg group, end of the post-treatment phase",43%
same,reduction in mean facial papule or pastule count,[1]; 3 mg group,61%
same,reduction in mean facial non-inflammatory lesion count,[1]; 3 mg group,62%
same,reduction in mean total facial nodulocystic lesion count,[1]; 3 mg group,79%
same,mean total facial nodulocystic lesion count at the end of the treatment period,"[1]; 3 mg group, from 10.8 at baseline",2.3
same,mean facial papule or pastule count at the end of the treatment period,"[1]; 3 mg group, from 25.4 at baseline",10.0
same,mean facial non-inflammatory lesion count at the end of the treatment period,"[1]; 3 mg group, from 56.1 at baseline",21.3
same,median time to initial complete clearing of facial nodulocystic lesions,"[1]; 3 mg group, placebo 24 weeks (p=0.017)",16 weeks
same,patients withdrawing due to adverse events in the treatment period,[1]; 6 mg group (1/36),3%
same,patients withdrawing due to lack of efficacy,[1]; 6 mg group (2/36),6%
same,patients with either no acne or mild acne,"[1]; 6 mg group, end of the post-treatment phase",53%
same,reduction in mean facial papule or pastule count,[1]; 6 mg group,55%
same,reduction in mean facial non-inflammatory lesion count,[1]; 6 mg group,72%
same,reduction in mean total facial nodulocystic lesion count,[1]; 6 mg group,86%
same,mean total facial nodulocystic lesion count at the end of the treatment period,"[1]; 6 mg group, from 11.6 at baseline",1.6
same,mean facial papule or pastule count at the end of the treatment period,"[1]; 6 mg group, from 24.6 at baseline",11.1
same,mean facial non-inflammatory lesion count at the end of the treatment period,"[1]; 6 mg group, from 47.7 at baseline",13.5
same,median time to initial complete clearing of facial nodulocystic lesions,"[1]; 6 mg group, placebo 24 weeks (p=0.081)",16 weeks
same,overall acne severity,"[1]; 6 mg, from week 16 until the end of the post-treatment phase (p≦0.01)",reduces the overall acne severity significantly more than placebo
same,"bone formation and resorption (serum bone alkaline phosphatase, serum amino terminal telopeptides)",[1]; [5],do not appear to be altered
same,"changes in urinalysis, chemistry, or hematology measures (including liver function tests, triglycerides, total cholesterol, HDL cholesterol)",[1]; [5],None of the treatment groups show any consistent clinically significant changes
same,"ligament calcification, osteophyte formation, or changes in bone density",[1]; [5],"None of the treatment groups show any clinically significant ligament calcification, osteophyte formation, or changes in bone density"
same,percentage of patients with at least a 90% reduction in facial nodulocystic lesion count vs placebo,"[1]; 1.5, 3, and 6 mg groups, week 24",significantly greater
same,sebum secretion (Sebutape method),[1]; oral tazarotene 0.75 to 6 mg vs placebo,does not substantially reduce sebum secretion relative to placebo
same,patients with either no acne or mild acne,"[1]; three highest dose groups, end of the treatment phase, placebo 19%",More than 45%
same,patients achieving treatment success,"[1]; three highest doses, by week 12",more than 70%
same,patients achieving treatment success,"[1]; two highest doses, by week 24",more than 86%
same,effect on PK or efficacy of NE/EE and NGM/EE oral contraceptives,"[2]; orally, up to 6 mg once daily",does not affect
same,"90% confidence intervals of AUC0-24 and Cmax for EE, NE, and NGM","[2]; tazarotene 1.1 mg or 6 mg daily with NE/EE, 6 mg daily with NGM/EE",within the 80-125% boundary
same,90% confidence intervals of FSH and LH,[2]; tazarotene coadministered with oral contraceptives,generally within the 80-125% boundary
same,90% confidence intervals of progesterone concentrations,"[2]; tazarotene coadministered with oral contraceptives, days 18 and 20 of 2nd and 3rd cycles",within the 80-125% boundary
same,serum FSH and LH levels,"[2]; tazarotene coadministered with oral contraceptives, follicular phase",remain within the normal ranges
same,Cheilitis,[3],134 (60.1) NUMBER OF (%) OF PATIENTS
same,Conjunctivitis,[3],0 (0.0) NUMBER OF (%) OF PATIENTS
same,Desquamation central face/Desquamation,[3],1 (0.4) NUMBER OF (%) OF PATIENTS
same,Dry Skin,[3],79 (35.4) NUMBER OF (%) OF PATIENTS
same,Dry nose,[3],7 (3.1) NUMBER OF (%) OF PATIENTS
same,Epistaxis,[3],6 (2.7) NUMBER OF (%) OF PATIENTS
same,Fingertip peeling/Desquamation,[3],1 (0.4) NUMBER OF (%) OF PATIENTS
same,Headache,[3],26 (11.7) NUMBER OF (%) OF PATIENTS
same,Irritation of eyes,[3],0 (0.0) NUMBER OF (%) OF PATIENTS
same,Joint pain/Arthralgia,[3],18 (8.1) NUMBER OF (%) OF PATIENTS
same,Peeling/Desquamation,[3],1 (0.4) NUMBER OF (%) OF PATIENTS
same,Pruritus,[3],10 (4.5) NUMBER OF (%) OF PATIENTS
same,Rash-dermatitis/Rash,[3],7 (3.1) NUMBER OF (%) OF PATIENTS
same,Red Scaly face/Desquamation,[3],1 (0.4) NUMBER OF (%) OF PATIENTS
same,Skin fragility/Skin disorder,[3],1 (0.4) NUMBER OF (%) OF PATIENTS
same,incidence of asthenia,[4],6%
same,incidence of back pain,[4],11%
same,incidence of headache,[4],11%
same,incidence of infection,[4],10%
same,incidence of myalgia,[4],15%
